Measurements as given in patent US20220235005A1, “FUNGICIDAL N-(PYRID-3-YL)CARBOXAMIDES” (BASF SE, priority 2019, published 2022).

## Cc1cc(NC(=O)/C(=N/OCC(C)C)c2ccccc2)cnc1C [Ex-8, (2E)-N-(5,6-dimethyl-3-pyridyl)-2-isobutoxyimino-2-phenyl-acetamide]
  melting point: 169 °C
